US10144742B2 (Millennium Pharmaceuticals, Inc., priority 2014, dated 2018)

Tests used:
hNAMPT protein = hNAMPT protein (Homo sapiens (Human), UniProt P43490); experiment: NAMPT enzyme assay (TR-FRET/HTRF, BodiPY ligand, anti 6His-Tb); type: binding; details: for IC50: NAMPT IC50 range class, read-out: IC50; for inhibition at 1 µM: read-out: Percent Inhibition
How it was run: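 TR-FRET binding assay in which His-tagged human NAMPT with anti-6His-Tb is displaced by compound from a BodiPY ligand, incubated 1 h at rt in the dark. Excitation was at 320 nm, with the 520/486 nm emission ratio read. IC50 was fitted from inhibition relative to DMSO controls.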

PC3 cells = experiment: PC3 growth inhibition (Cell-titer glo, 72 hours); type: cell-based; details: compound concentration 1.667 μM, PC3 cells, 72 hours, Cell-titer glo; for inhibition at 1.667 µM: Homo sapiens, PC-3, read-out: Percent Inhibition (PC3 growth inhibition)
How it was run: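 PC3 cells in RPMI1640 seeded overnight at 37 °C, 5% CO2, then exposed to compound diluted in AIM serum-free medium for 72 h. Viability by CellTiter-Glo luminescence vs DMSO controls; single-concentration % remaining viability (1 μM or 1.667 μM), or GI50/LD50 from curves.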

Sequence of hNAMPT protein (P43490 whole entry): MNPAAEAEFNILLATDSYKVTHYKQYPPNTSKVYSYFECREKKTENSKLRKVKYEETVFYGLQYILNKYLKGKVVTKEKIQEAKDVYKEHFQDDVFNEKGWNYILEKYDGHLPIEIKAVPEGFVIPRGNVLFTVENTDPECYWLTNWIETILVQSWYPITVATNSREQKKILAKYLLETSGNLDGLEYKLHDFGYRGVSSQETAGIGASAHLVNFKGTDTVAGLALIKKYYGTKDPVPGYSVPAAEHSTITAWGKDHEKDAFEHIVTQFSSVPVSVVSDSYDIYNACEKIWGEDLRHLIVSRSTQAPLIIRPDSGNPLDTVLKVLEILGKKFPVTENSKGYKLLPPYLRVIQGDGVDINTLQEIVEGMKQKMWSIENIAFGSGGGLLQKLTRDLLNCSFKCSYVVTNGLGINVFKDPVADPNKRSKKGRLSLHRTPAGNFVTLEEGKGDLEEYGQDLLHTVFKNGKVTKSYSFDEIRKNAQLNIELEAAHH

Structure (SMILES)	IC50 (hNAMPT protein) [µM]	inhibition at 1 µM (hNAMPT protein; compound concentration 1 μM) [%]	inhibition at 1.667 µM (PC3 cells) [%]	Percent Inhibition (hNAMPT protein; compound concentration 1 μM) [%]	Percent Inhibition (PC3 growth inhibition) (PC3 cells) [%]
O=C(NCCCc1ncc[nH]1)c1ccc2nc(-c3ccc(F)cc3)c(-c3cc(F)c(F)cc3F)nc2c1 [Compound I-337, 2-(4-fluorophenyl)-N-[3-(1H-imidazol-2-yl)propyl]-3-(2,4,5-trifluorophenyl)quinoxaline-6-carboxamide]	0.1 to 0.5	88	3		
CO[C@H]1C[C@H](Oc2nc3ccc(C(=O)NCCCc4ncc[nH]4)cc3nc2-c2ccc(F)cc2)C1 [Compound I-338, 3-(4-fluorophenyl)-N-[3-(1H-imidazol-2-yl)propyl]-2-[(trans-3-methoxycyclobutyl)oxy]quinoxaline-6-carboxamide]	< 0.1	> 99	1		
CC(C)Oc1nc2ccc(C(=O)NCCCc3ncc[nH]3)cc2nc1-c1ccc(F)c(F)c1 [Compound I-339, 3-(3,4-difluorophenyl)-N-[3-(1H-imidazol-2-yl)propyl]-2-isopropoxyquinoxaline-6-carboxamide]	< 0.1	91	1		
O=C(NCCCc1ncc[nH]1)c1ccc2nc(-c3ccc(F)cc3)c(-c3cccs3)nc2c1 [Compound I-340, 2-(4-Fluorophenyl)-N-[3-(1H-imidazol-2-yl)propyl]-3-(2-thienyl)quinoxaline-6-carboxamide]	< 0.1	> 99	3		
CC(C)(C)OCc1nc2ccc(C(=O)NCCCc3ncc[nH]3)cc2nc1-c1ccc(F)cc1 [Compound I-341, N-(3-(1H-imidazol-2-yl)propyl)-2-(tert-butoxymethyl)-3-(4-fluorophenyl)quinoxaline-6-carboxamide]	0.1 to 0.5	73	1		
Cc1ccsc1-c1nc2cc(C(=O)NCCCc3ncc[nH]3)ccc2nc1-c1ccc(F)cc1 [Compound I-342, 2-(4-fluorophenyl)-N-[3-(1H-imidazol-2-yl)propyl]-3-(3-methyl-2-thienyl)quinoxaline-6-carboxamide]	< 0.1	89	3		
CCOc1ccc(F)c(-c2nc3cc(C(=O)NCCCc4ncc[nH]4)ccc3nc2-c2ccc(F)cc2)c1 [Compound I-343, 3-(5-ethoxy-2-fluorophenyl)-2-(4-fluorophenyl)-N-[3-(1H-imidazol-2-yl)propyl]quinoxaline-6-carboxamide]	0.1 to 0.5	82	1		
COc1cc(-c2nc3cc(C(=O)NCCCc4ncc[nH]4)ccc3nc2OC(C)C)ccc1F [Compound I-344, 3-(4-fluoro-3-methoxyphenyl)-N-[3-(1H-imidazol-2-yl)propyl]-2-isopropoxyquinoxaline-6-carboxamide]	< 0.1			>99	1
CN1CCC(Oc2nc3ccc(C(=O)NCCCc4ncc[nH]4)cc3nc2-c2ccc(F)cc2)CC1 [Compound I-345, 3-(4-fluorophenyl)-N-[3-(1H-imidazol-2-yl)propyl]-2-[(1-methylpiperidin-4-yl)oxy]quinoxaline-6-carboxamide]	< 0.1	98	2		
CN1CCCCC1COc1nc2ccc(C(=O)NCCCc3ncc[nH]3)cc2nc1-c1ccc(F)cc1 (stereo not drawn) [Compound I-346, 3-(4-fluorophenyl)-N-[3-(1H-imidazol-2-yl)propyl]-2-[(1-methylpiperidin-2-yl)methoxy]quinoxaline-6-carboxamide]	< 0.1	98	3		
O=C(NCCCc1ncc[nH]1)c1ccc2nc(OCc3cn[nH]c3)c(-c3ccc(F)cc3)nc2c1 [Compound I-347, 3-(4-fluorophenyl)-N-[3-(1H-imidazol-2-yl)propyl]-2-(1H-pyrazol-4-ylmethoxy)quinoxaline-6-carboxamide]	< 0.1	97	33		
O=C(NCCCc1ncc[nH]1)c1ccc2nc(OCC3COC3)c(-c3ccc(F)cc3)nc2c1 [Compound I-348, 3-(4-fluorophenyl)-N-[3-(1H-imidazol-2-yl)propyl]-2-(oxetan-3-ylmethoxy)quinoxaline-6-carboxamide]	< 0.1	> 99	3		
CC(Oc1nc2ccc(C(=O)NCCCc3ncc[nH]3)cc2nc1-c1ccc(F)cc1)c1ccccc1 (stereo not drawn) [Compound I-349, 3-(4-fluorophenyl)-N-[3-(1H-imidazol-2-yl)propyl]-2-(1-phenylethoxy)quinoxaline-6-carboxamide]	< 0.1	91	3		
O=C(NCCCc1ncc[nH]1)c1ccc2nc(-c3ccc(F)cc3)c(-c3cccc(OC(F)(F)F)c3)nc2c1 [Compound I-350, 2-(4-fluorophenyl)-N-[3-(1H-imidazol-2-yl)propyl]-3-[3-(trifluoromethoxy)phenyl]quinoxaline-6-carboxamide]	0.1 to 0.5	86	2		
O=C(NCCCc1ncc[nH]1)c1ccc2nc(OCc3ccoc3)c(-c3ccc(F)cc3)nc2c1 [Compound I-351, 3-(4-fluorophenyl)-2-(3-furylmethoxy)-N-[3-(1H-imidazol-2-yl)propyl]quinoxaline-6-carboxamide]	< 0.1	96	3		
O=C(NCCCc1ncc[nH]1)c1ccc2nc(O[C@@H]3CCOC3)c(-c3ccc(Cl)cc3)nc2c1 [Compound I-352, 3-(4-chlorophenyl)-N-[3-(1H-imidazol-2-yl)propyl]-2-[(3R)-tetrahydrofuran-3-yloxy]quinoxaline-6-carboxamide]	< 0.1	99	2		
O=C(NCCCc1ncc[nH]1)c1ccc2nc(-c3ccc(F)cc3)c(-c3cc(Cl)ccc3Cl)nc2c1 [Compound I-353, 3-(2,5-dichlorophenyl)-2-(4-fluorophenyl)-N-[3-(1H-imidazol-2-yl)propyl]quinoxaline-6-carboxamide]	< 0.1	97	2		
COc1ccc(Cl)c(-c2nc3cc(C(=O)NCCCc4ncc[nH]4)ccc3nc2-c2ccc(F)cc2)c1 [Compound I-354, 3-(2-chloro-5-methoxyphenyl)-2-(4-fluorophenyl)-N-[3-(1H-imidazol-2-yl)propyl]quinoxaline-6-carboxamide]	< 0.1	97	2		
CCOc1cc(-c2nc3cc(C(=O)NCCCc4ncc[nH]4)ccc3nc2-c2ccc(F)cc2)ccc1F [Compound I-355, 3-(3-ethoxy-4-fluorophenyl)-2-(4-fluorophenyl)-N-[3-(1H-imidazol-2-yl)propyl]quinoxaline-6-carboxamide]	< 0.1	> 99	2		
O=C(NCCCc1ncc[nH]1)c1ccc2nc(OCc3c[nH]cn3)c(-c3ccc(F)cc3)nc2c1 [Compound I-356, 3-(4-fluorophenyl)-2-(1H-imidazol-4-ylmethoxy)-N-[3-(1H-imidazol-2-yl)propyl]quinoxaline-6-carboxamide]	0.5 to 1	63	4		
O=C(NCCCc1ncc[nH]1)c1ccc2nc(C3CC3)c(-c3ccc(F)cc3)nc2c1 [Compound I-357, 2-cyclopropyl-3-(4-fluorophenyl)-N-[3-(1H-imidazol-2-yl)propyl]quinoxaline-6-carboxamide]	0.1 to 0.5	83	1		
CCCOc1nc2ccc(C(=O)NCCCc3nnc[nH]3)cc2nc1-c1ccc(F)cc1 [Compound I-358, 3-(4-fluorophenyl)-2-propoxy-N-[3-(4H-1,2,4-triazol-3-yl)propyl]quinoxaline-6-carboxamide]	0.1 to 0.5	78	3		
CC(C)Oc1nc2ccc(C(=O)NCCCc3ccc(N)nc3)cc2nc1-c1ccc(F)cc1 [Compound I-359, N-[3-(6-aminopyridin-3-yl)propyl]-3-(4-fluorophenyl)-2-isopropoxyquinoxaline-6-carboxamide]	0.5 to 1	46	3		
O=C(NCCCc1ncc[nH]1)c1ccc2nc(O[C@H]3CCOC3)c(-c3ccc(Cl)cc3)nc2c1 [Compound I-360, 3-(4-chlorophenyl)-N-[3-(1H-imidazol-2-yl)propyl]-2-[(3S)-tetrahydrofuran-3-yloxy]quinoxaline-6-carboxamide]	< 0.1	> 99	2		
O=C(NCCCc1ncc[nH]1)c1ccc2nc(-c3ccc(F)cc3)c(-c3ccc(Cl)cc3)nc2c1 [Compound I-361, 3-(4-chlorophenyl)-2-(4-fluorophenyl)-N-[3-(1H-imidazol-2-yl)propyl]quinoxaline-6-carboxamide]	< 0.1	98	1		
Nc1ccc(CCCNC(=O)c2ccc3nc(N4CCOCC4)c(-c4ccc(F)cc4)nc3c2)cn1 [Compound I-362, N-[3-(6-aminopyridin-3-yl)propyl]-3-(4-fluorophenyl)-2-(morpholin-4-yl)quinoxaline-6-carboxamide]	0.1 to 0.5	74	2		
N#Cc1ccc(-c2nc3cc(C(=O)NCCCc4ncc[nH]4)ccc3nc2-c2ccc(F)cc2)s1 [Compound I-363, 3-(5-cyano-2-thienyl)-2-(4-fluorophenyl)-N-[3-(1H-imidazol-2-yl)propyl]quinoxaline-6-carboxamide]	0.1 to 0.5	78	3		
